What was measured:
[1] = biological target: T1, hRSV M2-1 protein (Human respiratory syncytial virus A, UniProt P04545); test: STD-NMR of M2-1/flavanone binding; design: species or system human Respiratory Syncytial Virus (hRSV A2 strain); details: 298 K, 50 µM protein, 250 µM flavonoid
T1 construct: allowing the expression of the full-length M2-1 with N-terminal fused to a His6-tag; made in house; host or cells: Escherichia coli BL21 RIL
Procedure: STD-NMR experiments were performed on a Bruker Avance III 600.13 MHz equipped with a triple resonance 5 mm cryoprobe, having the pulse field gradient along the Z axis. All data were analyzed with Bruker Topspin v3.5. A total concentration of 50 μM hRSV M2-1 protein in 50 mM K2HPO4/KH2PO4 buffer (pH 7.4) containing 150 mM NaCl and 1 mM DTT at 80/20% H2O/D2O was used for all measurements. The concentration of the flavonoids used in binding experiments was of 250 μM. The on- and off-resonance frequencies were set at −0.5 and 40 ppm, providing the best profile of protein saturation and STD effect. […] A total of 16 scans with 32 loop counters were collected with 4 dummy scans. For the suppression of the protein signals, it was applied a spinlock filter of 30 ms with 0.776 W. All measurements were performed at 298 K (25 °C) and it was used a flavonoid stock solution solubilized in deuterated DMSO-d6.
The STD effect ( ISTD ) on a given proton of the ligand was calculated according to the following equation [43, 44]:(1) ISTD=Ioff-resonance−Ion-resonance/I off-resonance where Ion-resonance and Ioff-resonance are the intensities of the ligand signals in the on- and off-resonance spectrum, respectively. The proton of the flavonoid with the highest STD effect (magnetization transfer maximum) was equal to 100% and the others protons were normalized according to this signal. The identification of ^1H NMR signals of the flavonoids at buffer solution [50 mM K2HPO4/KH2PO4 buffer (pH 7.4) at 80/20% H2O/D2O containing 150 mM NaCl and 1 mM DTT] was assisted by the resonance assignment from Chemical Book database (www.chamicalbook.com) under access code 520-33-2.

[2] = biological target: T1, hRSV M2-1 protein; test: Fluorescence quenching of M2-1 by flavanones (double-log plot, thermodynamic analysis); format: binding, human Respiratory Syncytial Virus (hRSV A2 strain); details: for Enthalpy change ΔH: Van't Hoff equation from Kb at 288 and 298 K
Procedure: The fluorescence measurements were performed on a steady-state ISS-PC1 spectrofluorimeter with temperature control (thermal bath Neslab RTE-221) and equipped with quartz cuvette of 10 mm optical path length. The excitation and emission bandwidths were set at 4 and 8 nm, respectively. The excitation wavelength was of 290 nm and the emission spectra were reported between 295 and 500 nm with 10 accumulations for each collected point. The emission spectrum was corrected for the background fluorescence from the buffer solution and for inner filter effect promoted by the flavonoids. The protein-ligand interaction measures were performed by collecting the fluorescence spectra of the protein in the absence of ligand (2 mL at 6 μM) and checking for quenching of intensities after addition of increasing concentrations of flavonoids, at 288 and 298 K (15 and 25 °C). The flavonoids’ concentrations varied from 0 to 26 μM in the final solution, with the emission of the hRSV M2-1 protein analyzed at 320 nm.
For the data analysis, it was hypothesized that the binding sites of the flavonoids on the M2-1 protein are equal and independent. Thus, the binding constant (Kb) and the number of binding sites (n) can be calculated using the following equation [46]:(2) log(F0−F/F)=n·logKb+n·log1/([LT]−(F0−F/F0)[PT]) where F0 and F are the fluorescence intensity of the M2-1 protein in the absence and in the presence of the flavonoids, respectively. [PT] and [LT] is the total concentration of M2-1 protein and ligand (flavonoids), respectively. The values of Kb and n for the M2-1/flavonoids complex are obtained from the ordinate and slope of the linear fitting from the double-log plot log((F0 − F)/F) & log(1/([LT] − ((F0 − F)/F0)[PT])), respectively.
In order to investigate the driving forces responsible for the binding of the flavonoids hesperetin and hesperidin to the M2-1 protein, the enthalpy change (ΔH) of this interaction was calculated from the Van’t Hoff equation:(3) lnKb2/Kb1=−ΔH/R(1/T2−1/T1) where Kb1 and Kb2 are binding constants at the absolute temperatures T1 and T2, which were 288 and 298 K (15 and 25 °C), respectively. R corresponds to the universal gas constant ([…]). The Gibbs free energy (ΔG) and entropy changes (ΔS) for the M2-1/flavonoids complex were calculated from the following equations:(4) ΔG=−R·T·lnKb (5) ΔS=ΔH−ΔG/T

[3] = system: RSV; design: method as in earlier work; details: against RSV; ref 28 (Kaul et al., 1985); cited from earlier work

T1 sequence (P04545 whole entry, the tested form may be a part): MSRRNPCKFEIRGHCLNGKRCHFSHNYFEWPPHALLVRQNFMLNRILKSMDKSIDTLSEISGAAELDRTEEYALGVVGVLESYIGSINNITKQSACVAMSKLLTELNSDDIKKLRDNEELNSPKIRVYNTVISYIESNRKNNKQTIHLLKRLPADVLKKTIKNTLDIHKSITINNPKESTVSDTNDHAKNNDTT

SMILES	STD effect, 1H protons on B-ring (normalized to highest signal) [1] [%]	Gibbs free energy change ΔG ([2]; 288 K) [kcal/mol]	Number of binding sites n ([2]; 288 K)	T·ΔS ([2]; 288 K) [kcal/mol]	Gibbs free energy change ΔG ([2]; 298 K) [kcal/mol]	Number of binding sites n ([2]; 298 K)	T·ΔS ([2]; 298 K) [kcal/mol]	Enthalpy change ΔH [2] [kcal/mol]	Anti-replicative activity [3] [%]	STD effect, hydrogens on A-ring (normalized to highest signal) [1] [%]
COc1ccc([C@@H]2CC(=O)c3c(O)cc(O[C@@H]4O[C@H](CO[C@@H]5O[C@@H](C)[C@H](O)[C@@H](O)[C@H]5O)[C@@H](O)[C@H](O)[C@H]4O)cc3O2)cc1O [HSD, Hesperidin]	96	-5.2	0.89	3.5	-5.4	0.93	3.7	-1.7		
COc1ccc([C@@H]2CC(=O)c3c(O)cc(O)cc3O2)cc1O [HST, Hesperetin]	72	-6.5	1.05	-22.5	-5.7	1.04	-23.3	-29.0	88	100

Source: article PMC7139479, “Insights into Interactions of Flavanones with Target Human Respiratory Syncytial Virus M2-1 Protein from STD-NMR, Fluorescence Spectroscopy, and Computational Simulations” (International Journal of Molecular Sciences, 2020)
